Data from ChEMBL document CHEMBL4831528, “Discovery of Novel Pterostilbene-Based Derivatives as Potent and Orally Active NLRP3 Inflammasome Inhibitors with Inflammatory Activity for Colitis” (J Med Chem, 2021).
Active and inactive are the calls of the source. The rule behind the calls is not given here.

How the values were obtained:
[1] = target: NACHT, LRR and PYD domains-containing protein 3 (Mus musculus) (UniProt Q8R4B8); test: Inhibition of NLRP3 inflammasome activation in LPS-stimulated mouse bone marrow-derived macrophages assessed as reduction in ASC polymerization at 1 to 4 uM preincubated for 30 mins followed by nigericin addition and measured after 0.5 hrs by DAPI staining based confocal scanning microscopy; conditions: Macrophage, dose 1-4 µM
Target sequence in this assay (Q8R4B8 whole entry, looked up, the tested form may be a part): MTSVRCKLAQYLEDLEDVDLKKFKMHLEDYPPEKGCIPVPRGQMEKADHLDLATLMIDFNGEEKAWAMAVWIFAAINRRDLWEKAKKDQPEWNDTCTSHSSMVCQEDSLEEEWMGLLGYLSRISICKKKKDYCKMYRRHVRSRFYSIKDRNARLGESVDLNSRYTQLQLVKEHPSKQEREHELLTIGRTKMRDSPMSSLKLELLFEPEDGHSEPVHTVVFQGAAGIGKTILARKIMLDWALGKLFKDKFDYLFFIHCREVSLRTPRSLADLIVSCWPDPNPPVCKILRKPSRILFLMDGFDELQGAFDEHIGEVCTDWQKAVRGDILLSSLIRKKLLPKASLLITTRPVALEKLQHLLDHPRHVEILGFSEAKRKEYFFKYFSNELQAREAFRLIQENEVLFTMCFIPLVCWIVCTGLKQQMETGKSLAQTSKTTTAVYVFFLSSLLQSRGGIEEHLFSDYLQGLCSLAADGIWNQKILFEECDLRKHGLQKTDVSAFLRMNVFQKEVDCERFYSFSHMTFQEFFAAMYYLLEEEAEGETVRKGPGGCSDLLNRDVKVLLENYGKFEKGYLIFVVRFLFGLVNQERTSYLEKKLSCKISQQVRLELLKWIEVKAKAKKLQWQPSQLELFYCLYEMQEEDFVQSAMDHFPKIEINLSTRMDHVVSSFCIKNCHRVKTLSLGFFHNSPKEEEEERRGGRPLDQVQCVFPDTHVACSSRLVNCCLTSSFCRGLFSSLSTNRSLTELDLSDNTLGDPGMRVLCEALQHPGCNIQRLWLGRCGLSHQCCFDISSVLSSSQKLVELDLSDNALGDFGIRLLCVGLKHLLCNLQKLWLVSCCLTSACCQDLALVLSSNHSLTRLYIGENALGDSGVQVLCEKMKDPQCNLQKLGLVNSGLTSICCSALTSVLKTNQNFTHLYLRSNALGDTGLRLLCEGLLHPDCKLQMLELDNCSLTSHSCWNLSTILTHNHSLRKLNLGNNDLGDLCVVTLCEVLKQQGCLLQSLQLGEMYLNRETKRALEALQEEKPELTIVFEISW

[2] = target: NACHT, LRR and PYD domains-containing protein 3 (Mus musculus) (UniProt Q8R4B8); test: Inhibition of NLRP3 inflammasome activation in LPS-stimulated mouse bone marrow-derived macrophages assessed as reduction in pro caspase1 p20 in cell lysate at 2 uM preincubated for 30 mins followed by ATP addition and measured after 0.5 hrs by Western blot analysis; assay type: subcellular; conditions: Macrophage, time 60.0 min
Target sequence in this assay (Q8R4B8 whole entry, the tested form may be a part): as the sequence (Q8R4B8 whole entry, looked up, the tested form may be a part) above

[3] = target: NACHT, LRR and PYD domains-containing protein 3 (Mus musculus) (UniProt Q8R4B8); test: Inhibition of NLRP3 inflammasome activation in LPS-stimulated mouse bone marrow-derived macrophages assessed as reduction in activated caspase1 p20 in supernatant at 2 uM preincubated for 30 mins followed by nigericin addition and measured after 0.5 hrs by Western blot analysis; assay type: tissue-based; conditions: Macrophage, time 60.0 min
Target sequence in this assay (Q8R4B8 whole entry, the tested form may be a part): as the sequence (Q8R4B8 whole entry, looked up, the tested form may be a part) above

[4] = target: NACHT, LRR and PYD domains-containing protein 3 (Mus musculus) (UniProt Q8R4B8); test: Inhibition of NLRP3 inflammasome activation in LPS-stimulated mouse bone marrow-derived macrophages assessed as attenuation of ASC dimer at 1 to 4 uM preincubated for 30 mins followed by nigericin addition and measured after 0.5 hrs by Western blot analysis; assay type: tissue-based; conditions: Macrophage, dose 1-4 µM
Target sequence in this assay (Q8R4B8 whole entry, the tested form may be a part): as the sequence (Q8R4B8 whole entry, looked up, the tested form may be a part) above

[5] = tested on: Mus musculus; test: Protection against DSS-induced acute ulcerative colitis in C57BL/6 mouse assessed as reduction in decrease in goblet cells at 10 to 20 mg/kg, ig administered for 7 days by Hematoxylin and eosin staining based optical microscopy; assay type: functional, organism-based; conditions: dose 10-20 mg/kg, time 7.0 day
[6] = tested on: Mus musculus; test: Downregulation of NLRP3 expression in colon of C57BL/6 mouse model of DSS-induced ulcerative colitis at 10 to 20 mg/kg, ig administered for 7 days by Western blot analysis; assay type: functional, organism-based; conditions: dose 10-20 mg/kg, time 7.0 day
[7] = Toxicity in C57BL/6 mouse assessed as effect on kidney at 20 to 40 mg/kg, ig administered for 28 days; assay type: organism-based; conditions: in vivo, po, 672 h, dose 20-40 mg/kg, time 28 day
[8] = target: NACHT, LRR and PYD domains-containing protein 3 (Mus musculus) (UniProt Q8R4B8); test: Inhibition of NLRP3 inflammasome activation in LPS-stimulated mouse bone marrow-derived macrophages assessed as reduction in IL-1beta secretion at 2 uM preincubated for 30 mins followed by MSU addition and measured after 0.5 hrs by ELISA; assay type: tissue-based; conditions: Macrophage, time 60.0 min
Target sequence in this assay (Q8R4B8 whole entry, the tested form may be a part): as the sequence (Q8R4B8 whole entry, looked up, the tested form may be a part) above

[9] = tested on: Mus musculus; test: Protection against DSS-induced acute ulcerative colitis in C57BL/6 mouse assessed as reduction in adhesion of colon at 10 to 20 mg/kg, ig administered for 7 days; assay type: functional, organism-based; conditions: dose 10-20 mg/kg, time 7.0 day
[10] = tested on: Mus musculus; test: Protection against DSS-induced acute ulcerative colitis in C57BL/6 mouse assessed as reduction in pathological index score at 10 to 20 mg/kg, ig administered for 7 days by Hematoxylin and eosin staining based optical microscopy; assay type: functional, organism-based; conditions: dose 10-20 mg/kg, time 7.0 day
[11] = target: NACHT, LRR and PYD domains-containing protein 3 (Mus musculus) (UniProt Q8R4B8); test: Inhibition of NLRP3 inflammasome activation in LPS-stimulated mouse bone marrow-derived macrophages assessed as reduction in cleaved IL-1beta secretion in supernatant at 2 uM preincubated for 30 mins followed by ATP addition and measured after 0.5 hrs by Western blot analysis; assay type: tissue-based; conditions: Macrophage, time 60.0 min
Target sequence in this assay (Q8R4B8 whole entry, the tested form may be a part): as the sequence (Q8R4B8 whole entry, looked up, the tested form may be a part) above

[12] = Toxicity in C57BL/6 mouse assessed as induction of lethargy at 20 to 40 mg/kg, ig administered for 28 days; assay type: organism-based; conditions: in vivo, po, 672 h, dose 20-40 mg/kg, time 28 day
[13] = Clearance in mouse at 20 mg/kg, po measured up to 24 hrs by LC-MS/MS analysis; assay type: ADME, organism-based; conditions: in vivo
[14] = target: NACHT, LRR and PYD domains-containing protein 3 (Mus musculus) (UniProt Q8R4B8); test: Inhibition of NLRP3 inflammasome activation in LPS-stimulated mouse bone marrow-derived macrophages assessed as reduction in NEK7-NLRP3 protein-protein interaction preincubated for 30 mins followed by nigericin addition and measured after 30 mins by immunoprecipitation method; assay type: tissue-based; conditions: Macrophage, time 60.0 min
Target sequence in this assay (Q8R4B8 whole entry, the tested form may be a part): as the sequence (Q8R4B8 whole entry, looked up, the tested form may be a part) above

[15] = tested on: BMDM; test: Effect on NLRP3 expression in LPS-stimulated mouse bone marrow-derived macrophages at 0.5 to 2 uM preincubated for 30 mins followed by nigericin addition and measured after 30 mins by Western blot analysis; assay type: functional, tissue-based; conditions: dose 0.5-2 µM, time 60.0 min
[16] = Clearance in mouse at 2 mg/kg, iv measured after 0.08 to 24 hrs by LC-MS/MS analysis; assay type: ADME, organism-based; conditions: in vivo, time 0.08-24 hrs
[17] = tested on: Mus musculus; test: Downregulation of TNFalpha expression in C57BL/6 mouse model of DSS-induced ulcerative colitis at 10 to 20 mg/kg, ig administered for 7 days by ELISA; assay type: functional, organism-based; conditions: dose 10-20 mg/kg, time 7.0 day
[18] = target: NACHT, LRR and PYD domains-containing protein 3 (Mus musculus) (UniProt Q8R4B8); test: Inhibition of NLRP3 inflammasome activation in LPS-stimulated mouse bone marrow-derived macrophages assessed as reduction in pro caspase1 secretion in cell lysate at 2 uM preincubated for 30 mins followed by nigericin addition and measured after 0.5 hrs by Western blot analysis; assay type: subcellular; conditions: Macrophage, time 60.0 min
[19] = tested on: Mus musculus; test: Downregulation of phosphorylated STAT3 expression in colon of C57BL/6 mouse model of DSS-induced ulcerative colitis at 10 to 20 mg/kg, ig administered for 7 days by Western blot analysis; assay type: functional, organism-based; conditions: dose 10-20 mg/kg, time 7.0 day
[20] = target: NACHT, LRR and PYD domains-containing protein 3 (Mus musculus) (UniProt Q8R4B8); test: Inhibition of NLRP3 inflammasome activation in LPS-stimulated mouse bone marrow-derived macrophages assessed as reduction in cell pyrolysis at 5 to 25 uM preincubated for 30 mins followed by nigericin addition and measured after 30 mins by Western blot analysis; assay type: tissue-based; conditions: Macrophage, dose 5-25 µM, time 60.0 min
[21] = Hepatic clearance in mouse liver microsomes preincubated for 5 mins followed by NADPH addition and measured after 5 to 60 mins by LC-MS/MS analysis; assay type: ADME, Microsome; conditions: time 5-60 min
[22] = Cmax in mouse at 2 mg/kg, iv measured after 0.08 to 24 hrs by LC-MS/MS analysis; assay type: ADME, organism-based; set-up: route intravenous, time 0.08-24 hrs, dose 2 mg/kg; conditions: in vivo
[23] = tested on: BMDM; test: Effect on ASC expression in LPS-stimulated mouse bone marrow-derived macrophages at 0.5 to 2 uM preincubated for 30 mins followed by nigericin addition and measured after 30 mins by Western blot analysis; assay type: functional, tissue-based; conditions: dose 0.5-2 µM, time 60.0 min
[24] = Tmax in mouse at 20 mg/kg, po measured up to 24 hrs by LC-MS/MS analysis; assay type: ADME, organism-based; conditions: in vivo
[25] = target: NACHT, LRR and PYD domains-containing protein 3 (Mus musculus) (UniProt Q8R4B8); test: Inhibition of NLRP3 inflammasome activation in LPS-stimulated mouse J774A.1 cells assessed as inhibition of cell pyrolysis at 10 uM incubated for 1 hr followed by ATP addition and measured after 30 mins by Hoechst 33342/propidium iodide staining based high content screening method relative to control; conditions: J774.A1, time 1.5 hrs
[26] = target: NACHT, LRR and PYD domains-containing protein 3 (Mus musculus) (UniProt Q8R4B8); test: Inhibition of NLRP3 inflammasome activation in LPS-stimulated mouse bone marrow-derived macrophages assessed as reduction in pro IL-1beta in cell lysate at 2 uM preincubated for 30 mins followed by MSU addition and measured after 0.5 hrs by Western blot analysis; assay type: subcellular; conditions: Macrophage, time 60.0 min

- inhibition [1]: Active
- inhibition [2]: Active
- inhibition [3]: Active
- inhibition [4]: Active
- inhibition [8]: Active
- inhibition [11]: Active
- CL [13]: 152 mL/min/kg
- inhibition [14]: Dose-Dependent Effect
- clearance [16]: 87.5 mL/min/kg
- inhibition [18]: Active
- inhibition [20]: Active
- CLhep predicted [21]: 52.5 mL/min/kg
- Cmax [22]: 355 ng/mL
- Tmax [24]: 2.33 h
- inhibition [25]: 73.1%
- inhibition [26]: Active
Structure (SMILES): COc1cc(/C=C/c2ccc(NC(=O)C3CC3)cc2)c(/C=C/[N+](=O)[O-])c(OC)c1
- Activity [5]: Active
- Activity [6]: Active
- Activity [7]: Non-Toxic
- Activity [9]: Active
- Activity [10]: Active
- Activity [12]: Non-Toxic
- Activity [15]: inactive
- Activity [17]: Active
- Activity [19]: Active
- Activity [23]: inactive
